Consider one compound from patent US12616688B2, “Cell glycocalyx protection effect of anisodamine” (priority 2020, dated 2026).

Molecules are shown by their SMILES.

Holding throughout (format): cell-based, human
The test system of assay [1] is hCMEC/D3 cell. Briefly: CCK-8 cell proliferation assay. As to conditions: under 50 μg/mL LPS, 24 h. As to the method:
Immortalized HBMVEC hCMEC/D3 was taken from the Beijing Beina Chuanglian Biotechnology Institute (BNBIO) in China. The hCMEC/D3 endothelial cell was cultivated with an endothelial cell culture medium (ECM; cat.1001, Sciencell, USA) at 37° C. and 5% CO2. Anisodamine hydrobromide was taken from the Chengdu First Pharmaceutical Co., Ltd., Chengdu, China. Anisodamine hydrobromide was dissolved in distilled water at 20 mg/mL, then a resulting solution was filtered through a 0.22 μm filter membrane, and anisodamine hydrobromide solutions with final concentrations of 10 μg/mL, 20 μg/mL, 40 μg/mL, and 80 μg/mL each were prepared with ECM. LPS was dissolved in distilled water at 2 mg/mL, and LPS solutions with concentrations of 1 μg/mL, 10 μg/mL, 20 μg/mL, 50 μg/mL, and 100 μg/mL each were prepared with ECM. The hCMEC/D3 cell was treated with LPS and anisodamine hydrobromide.
The cell proliferation was assayed by the CCK-8 method (C0042, Beyotime, China). 2,000 cells were inoculated into a 96-well plate, cultivated for 24 h, and then treated with LPS and anisodamine hydrobromide; and before the end of the experiment, a CCK8 assay solution was added, the plate was incubated for 1 h, and then the absorbance at 450 nm was determined by a microplate reader (Labsery K3 Touch, Thermo Fisher, USA).
For orientation: Formazan colour is commonly taken as a measure of viable cells.

The subject of assay [2] is glycocalyx HS and cadherin of hCMEC/D3 cell. Briefly: Immunofluorescence staining and confocal microscopy of HS and cadherin. As to the method: 2.1 Experimental Groups: Normal Control Group, LPS Treatment Group (50 μg/mL), Low-Concentration Administration Group (LPS 50 μg/mL+Anisodamine Hydrobromide 10 μg/mL), and High-Concentration Administration Group (LPS 50 μg/mL+Anisodamine Hydrobromide 20 μg/mL). 2.2 Immunofluorescence Staining and Confocal Microscopy
A cell was fixed and penetrated, then blocked with 2% goat serum, and labeled with a murine HS monoclonal antibody (mAb) (1:100, 10E4 epitope, AMS Biotechnology, UK), a rabbit cadherin polyclonal antibody (pAb) (1:100, A0734, Abclonal, China), an Alexa Fluor 488 goat anti-murine (1:400, A11001, Thermo Fisher) secondary antibody, and an Alexa Fluor 568 donkey anti-rabbit (1:400, A10042, Thermo Fisher) secondary antibody. The cell nucleus was labeled with DAPI. Mounting was conducted, and then the cell was detected under a confocal microscope at LSM710.

The test system of another assay is hCMEC/D3 barrier. In words: Endothelial permeability assay (Transwell, FITC-dextran leakage). As to conditions: for LPS-induced permeability relative to control group: 24 h. As to the method: 3.1 Experimental Groups: Which were the Same as in Example 2.
A cell (5×10^4 in 200 μL ECM) was inoculated into an upper well of Transwell (0.4 μm, Corning, USA), and 200 μL of ECM was added to a lower well; the Transwell was incubated for 3 d in a 37° C. and 5% CO2 incubator until a cell confluency was 90%; a medium in the upper well was replaced with 50 μg/mL LPS or anisodamine hydrobromide (10 μg/mL or 20 μg/mL)-free fresh ECM, and a medium in the lower well was replaced with fresh ECM; 24 h later, 10 μL of fluorescein isothiocyanate (FITC)-dextran (40 kDa; Cat. 46944, Sigma-Aldrich, USA) was added to the upper well; 40 min later, 100 μL of a medium was taken from the lower well, and fluorescence values at 490 nm and 525 nm were determined; and a leakage amount of FITC-dextran was calculated to assess the permeability of an endothelial cell layer.

For assay [3], the system named is hCMEC/D3 cell. In words: NO production assay. As to the method:
4.1 Experimental Groups: Which were the Same as in Example 2.
A cell was pre-cooled with PBS, then ultrasonically disrupted and homogenized, and centrifuged at 16,000 g and 4° C. for 20 min, a resulting supernatant was collected, and a NO detection kit (Nanjing Jiancheng Institute of Biological Engineering A012) was used to determine the absorbance at 550 nm, thereby determining an NO level.

[4] abbreviates: LPS 50 μg/mL + anisodamine hydrobromide 10 μg/mL.
[5] abbreviates: LPS 50 μg/mL + anisodamine hydrobromide 20 μg/mL.
Where [6] appears, read: LPS 50 μg/mL + anisodamine hydrobromide 10 or 20 μg/mL.

In the case of `Br.CN1[C@H]2C[C@H](OC(=O)[C@H](CO)c3ccccc3)C[C@@H]1[C@@H](O)C2` [anisodamine hydrobromide, Anisodamine hydrobromide], the cell proliferation result is on record as “significantly increased the cell proliferation” with hCMEC/D3 cell [1] (anisodamine hydrobromide 20 μg/mL); “significantly improve the proliferation” in the assay with hCMEC/D3 cell [1] (anisodamine hydrobromide 20 μg/mL, listed as anisodamine); “significantly down-regulated the cell proliferation” in the assay on hCMEC/D3 cell [1] (anisodamine hydrobromide 80 μg/mL); “significantly inhibit the proliferation” with hCMEC/D3 cell [1] (anisodamine hydrobromide 80 μg/mL, listed as anisodamine). Also, the “loss of cadherin and HS” value in assay [2] (setting [4]) is “inhibit the loss of cadherin and HS”; in assay [2] (setting [5]), “inhibit the loss of cadherin and HS”. Besides, the “integrity and width of a cell junction” value in assay [2] (setting [6]) was “restored the integrity and width of a cell junction”. Besides, in assay [2] (compared with the control group and the 10 μg/mL anisodamine hydrobromide group (group not named, apparently 20 μg/mL)), the “cadherin level and HS coverage rate” value is “increased slightly, but not significantly”. In addition, the “LPS-induced permeability relative to control group” value amounted to 2.7 times in the assay with hCMEC/D3 barrier (setting [4]) and 2.6 times in the assay with hCMEC/D3 barrier (setting [5]). Moreover, the “permeability, anisodamine hydrobromide group vs control group” value in the assay on hCMEC/D3 barrier (setting [6]) is on record as “no significant difference”. Moreover, in the assay with hCMEC/D3 cell [3] (setting [4]), the “LPS-induced NO production relative to control group” value came to 1.2 times. The “LPS-induced NO level” value in the assay with hCMEC/D3 cell [3] (LPS 50 μg/mL + anisodamine hydrobromide 10 μg/mL (second mention)) is “significantly reduced the LPS-induced NO level”.
